Assay results: patent publication US20250188085A1, “COMPOSITIONS AND METHODS FOR INHIBITION OF RAS” (THERAS, INC., priority 2022, published 2025)
Where two headings read alike, the source gives them in different places.

Columns and labels:
[1] = molecular target: T1, GDP-loaded KRAS4b (amino acids 1-169) G12C/C118S protein (Homo sapiens, UniProt P01116, C118S/G12C); experiment: Covalent cysteine 12 modification by MALDI-TOF MS, GDP-loaded KRAS G12C; assay type: binding; settings: 15 minutes reaction time point
T1 construct: KRAS4b (amino acids 1-169) G12C/C118S protein; made in house
Outline: (§1)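 KRAS4b 1-169 G12C/C118S loaded with GDP, GppNHp or GTP was used at 1 μM in 20 mM HEPES, 150 mM NaCl, 1 mM MgCl2, pH 7.3, and incubated with compound (5 mM DMSO stock) at room temperature in the dark. % modification at 15 min is adduct peak height over total protein peak heights by linear-mode MALDI-TOF.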

[2] = molecular target: T2, GTP-loaded KRAS4b (amino acids 1-169) G12C/C118S protein (Homo sapiens, UniProt P01116, C118S/G12C); experiment: Covalent cysteine 12 modification by MALDI-TOF MS, GTP-loaded KRAS G12C; assay type: binding; settings: 15 minutes reaction time point
T2 construct: KRAS4b (amino acids 1-169) G12C/C118S protein; made in house
Outline: as §1

[3] = molecular target: T3, GppNHp-loaded KRAS4b (amino acids 1-169) G12C/C118S protein (Homo sapiens, UniProt P01116, C118S/G12C); experiment: Covalent cysteine 12 modification by MALDI-TOF MS, GppNHp-loaded KRAS G12C; assay type: binding; settings: 15 minutes reaction time point
T3 construct: KRAS4b (amino acids 1-169) G12C/C118S protein; made in house
Outline: as §1

pERK in NCI-H358 cells = experiment: Cell-based pERK HTRF assay; settings: 30 min incubation, read-out: pERK in NCI-H358 cell inhibition IC50
Outline: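 Cells seeded at 4×10^4/well in RPMI with 10% FBS, then next day treated for 30 min with a 9-point, 3-fold series from 75 μM top concentration at 0.25% DMSO. Lysates were read for pERK by HTRF (d2/Eu cryptate antibodies) after 4–24 h at room temperature, emission at 615 nm.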

[4] = molecular target: T4, Avi-KRAS G12C (1-169) GppNHp/RAF1 RBD-3×FLAG (52-151) (Homo sapiens, UniProt P01116, G12C); experiment: Raf1 RBD-KRAS G12C-GppNHp disruption (protein:protein interaction HTRF assay); assay type: biochemical
T4 construct: Avi-KRAS G12C (1-169) GppNHp/RAF1 RBD-3×FLAG (52-151)
Outline: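 HTRF measuring disruption of 50 nM Avi-KRAS G12C (1-169) loaded with GppNHp binding RAF1 RBD-3×FLAG (52-151), in pH 7.5 Tris buffer with 5 mM MgCl2, 0.1% BSA, 10% DMSO. KRAS preincubated with compound 1 h, then RBD 1 h, then detection reagents 1 h, all at room temperature. Compound titration 30-0.02 μM; activity expressed as percent of DMSO control.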

Compound: C=CC(=O)N1CC[C@@H](Oc2nc(OC[C@@]34CCCN3C[C@H](F)C4)nc3cc(-c4ccc(F)c5sc(N)c(C#N)c45)c(C(F)(F)F)cc23)[C@H]1C [Compound 98]
- GDP-KRAS G12C percent of modification [1]: B (50≤percent of modification <70%)
- GTP-KRAS G12C percent of modification [2]: C (10%≤modification <50%)
- GppNHp-KRAS G12C percent of modification [3]: B (50≤percent of modification <70%)
- IC50 (pERK in NCI-H358 cells; Homo sapiens, NCI-H358, 0.5 h): 100 to 1000 nM
- IC50 [4]: ≤ 500 nM

Compound: C=CC(=O)N1CCC(Oc2nc(OC[C@@]34CCCN3C[C@H](F)C4)nc3c(F)c(-c4ccc(F)c5sc(N)nc45)c(C(F)(F)F)cc23)C1(C)C (some centres unmarked) [Compound 45]
- GDP-KRAS G12C percent of modification [1]: B (50≤percent of modification <70%)
- GTP-KRAS G12C percent of modification [2]: C (10%≤modification <50%)
- GppNHp-KRAS G12C percent of modification [3]: C (10%≤modification <50%)
- IC50 (pERK in NCI-H358 cells; Homo sapiens, NCI-H358, 0.5 h): ≤ 100 nM
- IC50 [4]: ≤ 500 nM

Compound: C=CC(=O)N1CC[C@@H](Oc2nc(OC[C@@]34CCCN3C[C@H](F)C4)nc3c(Cl)c(-c4ccc(F)c5sc(N)c(C#N)c45)ncc23)[C@H]1COC [Compound 110]
- GDP-KRAS G12C percent of modification [1]: A (percent of modification ≥70%)
- GTP-KRAS G12C percent of modification [2]: A (percent of modification ≥70%)
- GppNHp-KRAS G12C percent of modification [3]: A (percent of modification ≥70%)
- IC50 (pERK in NCI-H358 cells; Homo sapiens, NCI-H358, 0.5 h): ≤ 100 nM
- IC50 [4]: ≤ 500 nM

Compound: C=CC(=O)N1C[C@@H](F)[C@@H](Oc2nc(OC[C@@]34CCCN3C[C@H](F)C4)nc3c(F)c(-c4ccc(F)c5sc(N)c(C#N)c45)ccc23)C1 [Compound 80]
- GDP-KRAS G12C percent of modification [1]: A (percent of modification ≥70%)
- GTP-KRAS G12C percent of modification [2]: A (percent of modification ≥70%)
- GppNHp-KRAS G12C percent of modification [3]: A (percent of modification ≥70%)
- IC50 (pERK in NCI-H358 cells; Homo sapiens, NCI-H358, 0.5 h): ≤ 100 nM
- IC50 [4]: ≤ 500 nM

Compound: C=CC(=O)N1CC[C@@H](Oc2nc(OC[C@@]34CCCN3C[C@H](F)C4)nc3c(F)c(-c4ccc(F)c5sc(N)c(C#N)c45)ccc23)[C@@H]1CC [Compound 116]
- GDP-KRAS G12C percent of modification [1]: C (10%≤modification <50%)
- GTP-KRAS G12C percent of modification [2]: D (percent of modification <10%)
- GppNHp-KRAS G12C percent of modification [3]: D (percent of modification <10%)
- IC50 (pERK in NCI-H358 cells; Homo sapiens, NCI-H358, 0.5 h): > 1000 nM
- IC50 [4]: > 20000 nM

Compound: C=CC(=O)N1CC[C@@H](Oc2nc(OC[C@@]34CCCN3C[C@H](F)C4)nc3cc(-c4ccc(F)c5sc(N)c(C#N)c45)c(C#N)cc23)[C@@H]1C [Compound 120]
- GDP-KRAS G12C percent of modification [1]: B (50≤percent of modification <70%)
- GTP-KRAS G12C percent of modification [2]: D (percent of modification <10%)
- GppNHp-KRAS G12C percent of modification [3]: D (percent of modification <10%)
- IC50 (pERK in NCI-H358 cells; Homo sapiens, NCI-H358, 0.5 h): 100 to 1000 nM
- IC50 [4]: 5000 to 20000 nM

Compound: C=CC(=O)N1CC[C@@H](Oc2nc(OC[C@@]34CCCN3C[C@H](F)C4)nc3c(F)c(-c4ccc(F)c5sc(N)c(C#N)c45)c(C(F)(F)F)cc23)C1 [Compound 46]
- GDP-KRAS G12C percent of modification [1]: B (50≤percent of modification <70%)
- GTP-KRAS G12C percent of modification [2]: B (50≤percent of modification <70%)
- GppNHp-KRAS G12C percent of modification [3]: B (50≤percent of modification <70%)
- IC50 (pERK in NCI-H358 cells; Homo sapiens, NCI-H358, 0.5 h): ≤ 100 nM
- IC50 [4]: ≤ 500 nM

Compound: C=CC(=O)N1CC[C@@H](Oc2nc(OC[C@@]34CCCN3C[C@H](F)C4)nc3c(F)c(-c4ccc(F)c5sc(N)c(C#N)c45)ccc23)[C@H]1C [Compound 76, 4-(4-(((2R,3R)-1-acryloyl-2-methylpyrrolidin-3-yl)oxy)-8-fluoro-2-(((2R,7aS)-2-fluorotetrahydro-1H-pyrrolizin-7a (5H)-yl)methoxy)quinazolin-7-yl)-2-amino-7-fluorobenzo[b]thiophene-3-carbonitrile]
- GDP-KRAS G12C percent of modification [1]: A (percent of modification ≥70%)
- GTP-KRAS G12C percent of modification [2]: A (percent of modification ≥70%)
- GppNHp-KRAS G12C percent of modification [3]: A (percent of modification ≥70%)
- IC50 (pERK in NCI-H358 cells; Homo sapiens, NCI-H358, 0.5 h): ≤ 100 nM
- IC50 [4]: ≤ 500 nM

Compound: C=CC(=O)N1CC[C@@H](Oc2nc(OC[C@@H]3CCCN3C)nc3c(F)c(-c4ccc(F)c5sc(N)c(C#N)c45)c(C(F)(F)F)cc23)[C@H]1C [Compound 101]
- GDP-KRAS G12C percent of modification [1]: A (percent of modification ≥70%)
- GTP-KRAS G12C percent of modification [2]: C (10%≤modification <50%)
- GppNHp-KRAS G12C percent of modification [3]: B (50≤percent of modification <70%)
- IC50 (pERK in NCI-H358 cells; Homo sapiens, NCI-H358, 0.5 h): ≤ 100 nM
- IC50 [4]: ≤ 500 nM

Compound: C=CC(=O)N1CC[C@@H](Oc2nc(OC[C@@]34CCCN3C[C@H](F)C4)nc3c(F)c(-c4ccc(F)c5sc(N)c(C#N)c45)c(C(F)(F)F)cc23)[C@H]1COC (atropisomer, axis not shown) [Compound 95]
- GDP-KRAS G12C percent of modification [1]: A (percent of modification ≥70%)
- GTP-KRAS G12C percent of modification [2]: A (percent of modification ≥70%)
- GppNHp-KRAS G12C percent of modification [3]: A (percent of modification ≥70%)
- IC50 (pERK in NCI-H358 cells; Homo sapiens, NCI-H358, 0.5 h): ≤ 100 nM
- IC50 [4]: ≤ 500 nM

Compound: C=CC(=O)N1CC[C@@H](Oc2nc(OC[C@@]34CCCN3C[C@H](F)C4)nc3c(F)c(-c4ccc(F)c5sc(N)c(C#N)c45)c(C(F)(F)F)cc23)[C@H]1CC [Compound 114]
- GDP-KRAS G12C percent of modification [1]: C (10%≤modification <50%)
- GTP-KRAS G12C percent of modification [2]: C (10%≤modification <50%)
- GppNHp-KRAS G12C percent of modification [3]: C (10%≤modification <50%)
- IC50 (pERK in NCI-H358 cells; Homo sapiens, NCI-H358, 0.5 h): ≤ 100 nM
- IC50 [4]: ≤ 500 nM

Compound: C=CC(=O)N1CC[C@@H](Oc2nc(OC[C@@]34CCCN3C[C@H](OC)C4)nc3c(F)c(-c4ccc(F)c5sc(N)c(C#N)c45)c(C(F)(F)F)cc23)[C@H]1C [Compound 99]
- GDP-KRAS G12C percent of modification [1]: B (50≤percent of modification <70%)
- GTP-KRAS G12C percent of modification [2]: B (50≤percent of modification <70%)
- GppNHp-KRAS G12C percent of modification [3]: B (50≤percent of modification <70%)
- IC50 (pERK in NCI-H358 cells; Homo sapiens, NCI-H358, 0.5 h): ≤ 100 nM
- IC50 [4]: ≤ 500 nM

Compound: C=CC(=O)N1CC[C@@H](Oc2nc(OC[C@@]34CCCN3C[C@H](F)C4)nc3c(F)c(-c4ccc(F)c5sc(N)c(C#N)c45)c(C(F)(F)F)cc23)[C@H]1C (single isomer, unassigned) [Compound 63]
- GDP-KRAS G12C percent of modification [1]: A (percent of modification ≥70%)
- GTP-KRAS G12C percent of modification [2]: A (percent of modification ≥70%)
- GppNHp-KRAS G12C percent of modification [3]: A (percent of modification ≥70%)
- IC50 (pERK in NCI-H358 cells): ≤ 100 nM
- IC50 [4]: ≤ 500 nM

Compound: C=CC(=O)N1CC[C@@H](Oc2nc(OC[C@@]34CCCN3C[C@H](F)C4)nc3c(F)c(-c4ccc(F)c5sc(N)c(C#N)c45)c(C(F)(F)F)cc23)[C@@H]1C [Compound 123]
- GDP-KRAS G12C percent of modification [1]: B (50≤percent of modification <70%)
- GTP-KRAS G12C percent of modification [2]: D (percent of modification <10%)
- GppNHp-KRAS G12C percent of modification [3]: C (10%≤modification <50%)
- IC50 (pERK in NCI-H358 cells; Homo sapiens, NCI-H358, 0.5 h): ≤ 100 nM
- IC50 [4]: ≤ 500 nM

Compound: C=CC(=O)N1CC[C@@H](Oc2nc(OC[C@@]34CCCN3C[C@H](F)C4)nc3c(F)c(-c4ccc(F)c5sc(N)nc45)ccc23)[C@H]1C [Compound 88]
- GDP-KRAS G12C percent of modification [1]: C (10%≤modification <50%)
- GTP-KRAS G12C percent of modification [2]: C (10%≤modification <50%)
- GppNHp-KRAS G12C percent of modification [3]: C (10%≤modification <50%)
- IC50 (pERK in NCI-H358 cells; Homo sapiens, NCI-H358, 0.5 h): 100 to 1000 nM
- IC50 [4]: ≤ 500 nM

Compound: C=CC(=O)N1CC[C@@H](Oc2nc(OC[C@@]34CCCN3C[C@H](F)C4)nc3c(Cl)c(-c4ccc(F)c5sc(N)nc45)c(C(F)(F)F)cc23)C1 (atropisomer, axis not shown) [Compound 44]
- GDP-KRAS G12C percent of modification [1]: A (percent of modification ≥70%)
- GTP-KRAS G12C percent of modification [2]: B (50≤percent of modification <70%)
- GppNHp-KRAS G12C percent of modification [3]: A (percent of modification ≥70%)
- IC50 (pERK in NCI-H358 cells; Homo sapiens, NCI-H358, 0.5 h): ≤ 100 nM
- IC50 [4]: ≤ 500 nM
